Measured values taken from patent US4104267A, “Somatostatin analogs” (American Home Products Corporation, priority 1977, dated 1978).
Counter-ions that a name gives are not always drawn. Residues, ends and D or L forms follow the SMILES beside them.

Columns and labels:
Type in all cases: in vivo
growth hormone = assay: Suppression of Growth Hormone, Glucagon and Insulin (arginine-stimulated, nembutal-anesthetized rats): growth hormone; conditions: for GH: albino male rats, arginine stimulation, blood 15 min after compound
Method: (§1) Albino male rats are arranged in the three groups (nine rats/group) and injected i.p. with nembutal at 50 mg/kg. Fifteen minutes after the nembutal injection they are injected s.c. according to group with (a) test compound, typically 10-2000 μg/kg.; )b) SRIF 200 μg/kg.; or (c) physiological saline. Ten minutes. later 0.5 ml. of arginine (300 mg/ml. pH 7.2) is injected into the heart. The rats are decapitated five minutes after receiving the arginine, and the blood is collected into Trasylol-EDTA. Appropriate aliquots are then assayed for growth hormone, glucagon and insulin. […] Comparisons between control and experimental values are statistically evaluated by the analysis of variants method and statistical significance (p) at 0.05 or lower is used as the index of activity.

growth hormone (GH) = assay: Suppression of Growth Hormone (duration of activity, 2 and 4 hours after sc injection); conditions: 1 mg/kg sc, nonfasted male rats, paired saline control; for plasma growth hormone (GH) concentration, 2 Hr.: 2 hours after injection; for plasma growth hormone (GH) concentration, 4 Hr.: 4 hours after injection
Method: A subcutaneous (sc) injection of peptide solubilized or suspended in physiological saline, is given to Charles River (CD® nonfasted male rats. Matched saline control solution sc injected rats serve as control animals so that every experimental rat is paired with a control rat. The rats are kept in separate cages and 20 minutes before the end of the test time period they are given an intraperitoneal (i.p.) injection of Nembutal® at a dose of 50 mg/kg. Blood samples are obtained by cardiac puncture and the plasma separated for the radioimmunoassay of growth hormone (GH) concentration (ng/ml.). Time periods after injection of 2 and 4 hours are used to test the duration of the activity of the peptide to suppress circulating peripheral GH levels. Comparisons between control and experimental GH values at each time are evaluated by the Student "t" test and statistical significance (p) at the 0.05 level or lower is used as the index of activity.

glucagon = assay: Suppression of Growth Hormone, Glucagon and Insulin (arginine-stimulated, nembutal-anesthetized rats): glucagon; conditions: albino male rats, arginine stimulation, blood 15 min after compound
Method: as §1

insulin = assay: Suppression of Growth Hormone, Glucagon and Insulin (arginine-stimulated, nembutal-anesthetized rats): insulin; conditions: albino male rats, arginine stimulation, blood 15 min after compound
Method: as §1

SMILES | GH (growth hormone; 100 μg/kg s.c.) [ng/mL] | plasma growth hormone (GH) concentration, 2 Hr. (growth hormone (GH)) [ng/mL] | plasma growth hormone (GH) concentration, 4 Hr. (growth hormone (GH)) [ng/mL] | Glucagon (glucagon; 100 μg/kg s.c.) [pg/mL] | Insulin (insulin; 100 μg/kg s.c.) [μU/ml.] | GH (growth hormone; 10 μg/kg s.c.) [ng/mL] | hormone specificity of suppression (growth hormone; at low doses, growth hormone, glucagon and insulin) | Glucagon (glucagon; 10 μg/kg s.c.) [pg/mL] | Insulin (insulin; 10 μg/kg s.c.) [μU/ml.]
C[C@@H](O)[C@@H]1NC(=O)[C@H](Cc2ccccc2)NC(=O)[C@H]([C@@H](C)O)NC(=O)[C@H](CCCCN)NC(=O)[C@@H](Cc2c[nH]c3ccccc23)NC(=O)[C@H](Cc2ccccc2)NC(=O)[C@H](Cc2ccccc2)NC(=O)[C@H](Cc2c[nH]cn2)NC(=O)[C@H](Cc2c[nH]cn2)NC(=O)[C@@H](N)CSSC[C@@H](C(=O)O)NC(=O)[C@H](CO)NC1=O [Compound I, L-Cysteinyl-L-Histidyl-L-Histidyl-L-Phenylalanyl-L-Phenylalanyl-D-Trptophyl-L-Lysyl-L-Threonyl-L-Phenylalanyl-L-Threonyl-L-Seryl-L-Cysteine Cyclic (1-12) Disulfide] (HELM PEPTIDE1{C.H.H.F.F.[dW].K.T.F.T.S.C}$PEPTIDE1,PEPTIDE1,1:R3-12:R3$$$V2.0) | 20 ± 8 | 32 ± 6 | 62 ± 13 | 20 ± 8 | 202 ± 49 | – | – | – | –
C[C@@H](O)[C@@H]1NC(=O)[C@H](CCCCN)NC(=O)[C@@H](Cc2c[nH]c3ccccc23)NC(=O)[C@H](Cc2ccccc2)NC(=O)[C@H](Cc2ccccc2)NC(=O)[C@H](Cc2c[nH]cn2)NC(=O)[C@H](Cc2c[nH]cn2)NC(=O)[C@@H](N)CSSC[C@H](C(=O)O)NC(=O)[C@H](CO)NC(=O)[C@H]([C@@H](C)O)NC(=O)[C@H](Cc2ccccc2)NC1=O [Compound II, L-Cysteinyl-L-Histidyl-L-Histidyl-L-Phenylalanyl-L-Phenylalanyl-D-Tryptophyl-L-Lysyl-L-Threonyl-L-Phenylalanyl-L-Threonyl-L-Seryl-D-Cysteine Cyclic (1-12) Disulfide, Diacetate Salt] (HELM PEPTIDE1{C.H.H.F.F.[dW].K.T.F.T.S.[dC]}$PEPTIDE1,PEPTIDE1,1:R3-12:R3$$$V2.0) | 64 ± 20 | 20 ± 3 | 107 ± 34 | 5 ± 2 | 165 ± 21 | 110 ± 22 | specific for the suppression of glucagon and growth hormone without affecting insulin secretion | 70 ± 7 | 318 ± 54
